{"source": "paper PMC3700342", "about": "(Biochemical pharmacology, 2013)", "molecules": {"B1": {"name": "M. smegmatis alanine racemase (Mycolicibacterium smegmatis) (protein)", "chain": "MQTTEPMTPPAPLASAQTVIDLGAIDHNVRVLRELAGSADVMAVVKADAYGHGALPVARTALAAGAAALGVATIPEALALREGGITAPVLAWLHPPGTDFAPAIAADVEVAVSSRRQLEQVTAAAAEVGRTATVTVKVDTGLSRNGVGAADYPEVLDVLRRAQADGAIRVRGLMSHLVHGDDPENPFNGLQGQRLADMRVYAREHGVDYEVAHLCNSPAAMTRPDLAFEMVRPGISLYGLSPIPERGDMGLRPAMTLKCPVALVRSVHAGDGVSYGHRWVADRDTTLGLLPIGYADGVYRALSGRIDVLIKGRRRRAVGRICMDQFVVDLGPDADDVAVGDDAILFGPGANGEPTAQDWAELLDTIHYEVVTSPRGRVTRTYLPAGQQD"}}, "key": {"[1]": {"molecular_target": "M. tuberculosis alanine racemase (Mycobacterium tuberculosis, UniProt P9WQA9)", "sequence (P9WQA9 whole entry)": "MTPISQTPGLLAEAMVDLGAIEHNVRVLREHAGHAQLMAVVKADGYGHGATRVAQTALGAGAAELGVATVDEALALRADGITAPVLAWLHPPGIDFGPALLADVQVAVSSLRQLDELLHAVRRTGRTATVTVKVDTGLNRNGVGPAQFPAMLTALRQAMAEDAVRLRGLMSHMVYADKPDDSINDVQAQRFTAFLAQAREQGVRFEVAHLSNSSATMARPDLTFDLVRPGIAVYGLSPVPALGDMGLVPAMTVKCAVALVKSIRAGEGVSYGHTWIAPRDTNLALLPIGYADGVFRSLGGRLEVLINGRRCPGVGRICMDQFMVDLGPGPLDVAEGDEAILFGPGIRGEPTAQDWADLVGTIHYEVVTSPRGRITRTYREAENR", "format": "biochemical"}, "[2]": {"molecular_target": "T1, M. smegmatis alanine racemase (Mycolicibacterium smegmatis, UniProt P94967)", "T1 sequence (P94967 1-389)": "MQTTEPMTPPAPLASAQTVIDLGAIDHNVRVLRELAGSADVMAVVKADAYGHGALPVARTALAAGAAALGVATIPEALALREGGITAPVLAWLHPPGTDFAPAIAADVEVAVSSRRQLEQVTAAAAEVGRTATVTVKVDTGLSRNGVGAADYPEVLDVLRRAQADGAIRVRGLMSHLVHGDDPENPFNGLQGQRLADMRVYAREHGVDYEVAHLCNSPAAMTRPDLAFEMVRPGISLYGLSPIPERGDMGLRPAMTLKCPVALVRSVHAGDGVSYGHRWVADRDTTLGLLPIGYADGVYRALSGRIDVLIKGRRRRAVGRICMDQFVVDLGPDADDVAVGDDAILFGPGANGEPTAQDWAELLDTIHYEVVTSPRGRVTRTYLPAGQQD", "assay": "Alanine racemase assay", "format": "biochemical"}, "M. tuberculosis": {"tested_on": "M. tuberculosis", "assay": "Microtiter broth dilution MIC, M. tuberculosis", "format": "cell-based", "details": "Mycobacterium tuberculosis, read-out: Mtb MIC"}, "M. smegmatis": {"tested_on": "M. smegmatis", "assay": "Microtiter broth dilution MIC, M. smegmatis", "format": "cell-based"}, "M. tuberculosis H37Rv": {"tested_on": "M. tuberculosis H37Rv", "assay": "Microtiter broth dilution MIC, M. tuberculosis H37Rv", "format": "cell-based", "details": "Mycobacterium tuberculosis"}, "[3]": {"tested_on": "M. smegmatis and M. tuberculosis growth", "assay": "MIC in the presence of 5 mM D-alanine in the growth medium", "format": "cell-based", "details": "data not shown"}, "C[C@H](N)C(=O)O": {"tested_on": "C[C@H](N)C(=O)O", "assay": "purified protein, by the assay type"}, "Alanine racemase assay": {"substrate": "C[C@H](N)C(=O)O", "assay": "Alanine racemase assay", "format": "biochemical, M. smegmatis", "details": "other: L-alanine to D-alanine, recombinant enzyme"}}, "data": [{"molecule": "C[C@H](N)C(=O)O", "note": "[L-alanine]", "values": [{"measurement": "Kcat", "setting": "[1]", "result": 200}, {"measurement": "Kcat", "setting": "[2]; L-alanine to D-alanine, recombinant enzyme", "result": 4300}]}, {"molecule": "N[C@@H]1CON=C1O", "note": "[CS, cycloserine]", "values": [{"measurement": "IC50", "setting": "[2]", "result": "> 100", "unit": "µM"}, {"measurement": "MIC", "setting": "M. tuberculosis", "result": 6.25, "unit": "mg/L"}, {"measurement": "MSM MIC", "setting": "M. smegmatis; 2 days, Mueller Hinton broth", "result": 25, "unit": "mg/L"}, {"measurement": "MIC", "setting": "M. smegmatis; Mycolicibacterium smegmatis, 48 h, read-out: MSM MIC", "result": 25, "unit": "mg/L"}, {"measurement": "MIC", "setting": "M. tuberculosis H37Rv", "result": 6.25, "unit": "mg/L"}, {"measurement": "increase in MIC", "setting": "[3]", "result": 3, "unit": "fold"}]}, {"molecule": "M. tuberculosis alanine racemase (Mycobacterium tuberculosis H37Rv)", "values": [{"measurement": "Km", "setting": "C[C@H](N)C(=O)O", "result": 4, "unit": "mM"}, {"measurement": "Vmax", "setting": "C[C@H](N)C(=O)O", "result": 0.04, "unit": "mM/min"}]}, {"molecule": "B1", "values": [{"measurement": "Km", "setting": "Alanine racemase assay", "result": 8.5, "unit": "mM"}, {"measurement": "Vmax", "setting": "Alanine racemase assay", "result": 0.3, "unit": "mM/min"}]}]}
